Reference: patent US20080233209A1, “Composition and method of use for the treatment of metabolic syndrome and inflammation” (POLIFENOLES NATURALES, SL, priority 2007, published 2008)
“Also recorded” adds a separate entry of the source. Like-named read-outs stand apart in the source and are kept apart here.

Experiments:
[1] = fucoxanthin, cited from earlier work
[2] = system: mitochondrial uncoupling protein 1 (UCP1); conditions: fucoxanthin; cited from earlier work
[3] = fucoxanthin, wistar rats; cited from earlier work
[4] = Energy expenditure rate (EER) by indirect calorimetry, 16-week double-blind placebo-controlled trial in obese non-diabetic female volunteers with NAFLD (Example 1); type: in vivo, human; design: key to Effects on EER: NE = No effect; * = significant vs. placebo and vs. baseline, p < 0.05% at the week listed for the duration of the study; *** = significant vs. placebo and vs. baseline, p < 0.001%; conditions: for Effects on EER: 16 weeks
Source text: The objectives of the study were to investigate the effects of different doses of a brown marine vegetable extract standardized by fucoxanthin content, pomegranate seed oil containing a minimum of 70% punicic acid, and the phytomedicine combining, both of fucoxanthin and pomegranate seed oil, on energy expenditure rate (EER) in obese non-diabetic female volunteers with non-alcoholic fatty liver disease (NAFLD) on a moderate calorie restriction diet. Forty-one (n=41) volunteers with an average body weight of 91.5±14.4 kgs (201+9.7 lbs), body fat of 40.4±3.7 kgs (88.8+8 lbs), liver fat content above 10% and average age of 37.4±4.8 years were recruited to take part in a 16-week clinical trial. Daily meal composition was 50% carbohydrate, 30% protein and 20% fat. Food record data, body composition, EER, and blood sample analysis results were assessed on admission and every week for 16-weeks. Energy expenditure rate (EER) was measured by indirect calorimetry. Plasma levels of inflammatory markers alanine aminotransferase (ALT), aspartate aminotransferase (AST), g-glutamyltransferase (GGT) enzymes and C-reactive protein (CRP) were evaluated as measures of liver function, along with diastolic and systolic blood pressure, dual-energy X-ray absorptiometry to determine percent of lean and fat body mass, and liver fat content. Subjects were randomly assigned to one of 10 treatments or placebo (total 11 groups), which were in softgel capsules and were to be consumed with water 15 to 30 mins. before meals. Each phytomedicine soft-gel capsule provided 100 mg of Undaria pinnatifida (Phaeophyceae) brown marine vegetable extract and 100 mg of cold-pressed pomegranate (Punica granatum, Punicaceae) seed oil.

[5] = Tolerability in the 16-week clinical trial of Example 1; type: in vivo, human
Experimental: Forty-one (n=41) volunteers with an average body weight of 91.5±14.4 kgs (201+9.7 lbs), body fat of 40.4±3.7 kgs (88.8+8 lbs), liver fat content above 10% and average age of 37.4±4.8 years were recruited to take part in a 16-week clinical trial. Daily meal composition was 50% carbohydrate, 30% protein and 20% fat. Food record data, body composition, EER, and blood sample analysis results were assessed on admission and every week for 16-weeks. Energy expenditure rate (EER) was measured by indirect calorimetry. Plasma levels of inflammatory markers alanine aminotransferase (ALT), aspartate aminotransferase (AST), g-glutamyltransferase (GGT) enzymes and C-reactive protein (CRP) were evaluated as measures of liver function, along with diastolic and systolic blood pressure, dual-energy X-ray absorptiometry to determine percent of lean and fat body mass, and liver fat content.
Subjects were randomly assigned to one of 10 treatments or placebo (total 11 groups), which were in softgel capsules and were to be consumed with water 15 to 30 mins. before meals. Each phytomedicine soft-gel capsule provided 100 mg of Undaria pinnatifida (Phaeophyceae) brown marine vegetable extract and 100 mg of cold-pressed pomegranate (Punica granatum, Punicaceae) seed oil.
All subjects completed 16 weeks clinical trial without any reported adverse effects. […]

Row | Substance | body weight ([1]; KK-Ay mice) | WAT ([1]; obese KK-Ay mice) | expression of uncoupling protein UCP1 gene in white adipose tissue (WAT) [2] | WAT [3] | Effects on EER vs. placebo and baseline ([4]; 8.40 mg fucoxanthin) | Effects on EER vs. those of 4.20 mg fucoxanthin ([4]; 8.40 mg fucoxanthin) | minimum doses that resulted in statistically significant increases in EER ([4]; 16-week trial, fucoxanthin as mg fucoxanthin/day) [mg] | Effects on EER ([4]; Fucoxanthin 1.68 mg/day) | Effects on EER ([4]; Fucoxanthin 2.52 mg/day) | Effects on EER ([4]; Fucoxanthin 4.20 mg/day) | Effects on EER ([4]; Fucoxanthin 8.40 mg/day) | EER in obese subjects (overall) ([4]; oral supplementation, effect dose-dependent and time-dependent) | tolerability ([5]; 16 weeks, all subjects, no reported adverse effects) | tolerability ([5]; human, in vivo)
1 | fucoxanthin | significant reduction | reduced WAT | upregulates | reduced WAT | highly significant | significant | 2.52 | NE | * (* = significant vs. placebo and vs. baseline, p < 0.05% at the week listed for the duration of the study) | * (* = significant vs. placebo and vs. baseline, p < 0.05% at the week listed for the duration of the study) | *** (*** = significant vs. placebo and vs. baseline, p < 0.001%) | increased; also recorded: statistically significant dose-dependent increase | well tolerated | 
2 | Pomegranate Seed Oil |  |  |  |  |  |  |  |  |  |  |  |  |  | well tolerated
